Experimental data as given in patent US20030096237A1, “Determination of the ability of patients to respond to a tumor treatment” (priority 2000, published 2003).

Tested on: CNCM I-2545 and CNCM I-2546
Assay: oligonucleotide array analysis, clustering of genes by mode of regulation
Type: cell-based, human
Details: 1st symbol CNCM I-2545, 2nd CNCM I-2546
Procedure: All these cell lines were cultured in RPMI medium supplemented with 10% FCS, glutamine (2 mM), sodium pyruvate (1 mM), non-essential amino acids and HEPES buffer (10 mM) (all from GIBCO Life Sciences, Paisley, UK). When confluent, the cells were passaged by trypsinization.
Cultured melanoma cells were harvested by scraping and total cellular RNA was extracted. 10 μg from each sample were used directly as templates for cDNA synthesis using a commercial kit (Roche Molecular Biochemicals, Rotkreuz, Switzerland). The T7 promoter sequence incorporated into the cDNA synthesis primer allowed template amplification and biotin labeling by in vitro transcription using a commercial kit (Affymetrix, Santa Clara, Calif.). After alkaline heat fragmentation […] was hybridised to the array (Affymetrix, Santa Clara, Calif.) and all subsequent steps were performed following standard procedures as supplied with the arrays. Raw data were collected with a confocal laser scanner (Hewlett Packard, Palo Alto, Calif.) using GeneChip software v3.1 (Affymetrix, Santa Clara, Calif.).
Raw data were normalized based on the total chip signal obtained upon hybridisation of ME15 cell line cDNA. This array was selected because: i) the 5′/3′ intensity ratio of control genes was smaller than 3; ii)>25% of the genes are called “present” by Genechip; iii) the image appearance is homogeneous with low background and no sign of mechanical chip damage.
The normalized average difference (nAD) between the signals of the perfect and of the mismatch probesets for each gene was used as the expression level of a given gene. At least one nAD value in a pairwise comparison of data has to exceed 50 to be included. Based on nAD, change factors related to IFN-α exposure were also calculated. Negative nAD values were set to 20 in order to avoid the calculation of artificially high modifications. In order to exclude artefacts, only genes with robust change factors, greater than 2-fold, were included in the analysis. […] Genes were clustered according to their mode of regulation.
Patterns of genes expressed in IFN-α sensitive and resistant melanoma cell lines were investigated upon 48 hour culture in the presence of IFN-α. CNCM I-2546 and CNCM I-2545 were studied in detail.
In Table 2 below, CNCM I-2546 and CNCM I-2545 cultured for 48 hours in the absence or in the presence of 100 U/ml IFN-α were used to assay cytokine modulated gene expression as matched with data obtained in fibrosarcoma cells. This analysis yielded six clusters of genes. […] Data are presented as average difference of signal intensity between match and mismatch probesets.
In Table 3 below, CNCM I-2546 and CNCM I-2545 cell lines cultured for 48 hours in the absence or in the presence of 100 U/ml IFN-α were used to identify novel cytokine induced genes whose expression was not found to be modulated in fibrosarcoma cells. Cluster 1 includes genes inducible in the CNCM I-2546 sensitive but not in the CNCM I-2545 resistant cell line. Cluster 2 comprises genes inducible in both lines. Data are presented as average difference of signal intensity between match and mismatch probesets.

IFN-α
˜u: cluster's characteristics D28137 bst-2 (Cluster 1) | cluster's characteristics D49824 hla-b null allele (Cluster 1) | cluster's characteristics HG658 major histocompatibility complex, class 1 c (Cluster 1) | cluster's characteristics HG2917 major histocompatibility complex, class i, e (Cluster 1) | cluster's characteristics J00105 beta-2 microglobulin gene (Cluster 1) | cluster's characteristics J04164 interferon-inducible protein 27-sep (Cluster 1) | cluster's characteristics M13755 interferon-induced 17-kda/15-kda protein (Cluster 1) | cluster's characteristics M19650 2′,3′-cyclic nucleotide 3prime-phosphodiesterase (Cluster 1) | cluster's characteristics M94880 mhc class i (hla-a*8001) (Cluster 1) | cluster's characteristics U22970 16-jun gene, interferon-inducible peptide (6-16) (Cluster 1) | cluster's characteristics U50648 interferon-inducible rna-dependent protein kinase (pkr) (Cluster 1) | cluster's characteristics U51127 interferon regulatory factor 5 (Cluster 1) | cluster's characteristics X02874 2-5A synthetase (1.6 kb) (Cluster 1) | cluster's characteristics X07730 prostate specific antigen (Cluster 1) | cluster's characteristics X57351 1-8d gene from interferon-inducible gene family (Cluster 1) | cluster's characteristics X57522 ring4 cdna (Cluster 1) | cluster's characteristics X67325 p27 (Cluster 1) | cluster's characteristics X96401 rox protein (Cluster 1) | cluster's characteristics Z56281 interferon regulatory factor 3 (Cluster 1) | cluster's characteristics D21235 hhr23a protein (Table 3 Cluster 1) | cluster's characteristics D28137 bst-2 (Table 3 Cluster 1) | cluster's characteristics D32050 alanyl-trna synthetase (Table 3 Cluster 1) | cluster's characteristics D50914 EST (Table 3 Cluster 1) | cluster's characteristics HG1612 macmarcks (Table 3 Cluster 1) | cluster's characteristics K03515 neuroleukin (Table 3 Cluster 1) | cluster's characteristics L13210 mac-2 binding protein (Table 3 Cluster 1) | cluster's characteristics L37043 casein kinase i epsilon (Table 3 Cluster 1) | cluster's characteristics M31013 nonmuscle myosin heavy chain (nmhc) (Table 3 Cluster 1) | cluster's characteristics M34338 spermidine synthase (Table 3 Cluster 1) | cluster's characteristics S81914 iex-1 = radiation-inducible immediate-early gene (Table 3 Cluster 1) | cluster's characteristics U09579 melanoma differentiation associated (mda-6) (Table 3 Cluster 1) | cluster's characteristics U18009 chromosome 17q21 clone lf113 (Table 3 Cluster 1) | cluster's characteristics U18018 ela enhancer binding protein (ela-f) (Table 3 Cluster 1) | cluster's characteristics U47025 fetal brain glycogen phosphorylase b (Table 3 Cluster 1) | cluster's characteristics U50327 protein kinase c substrate 80k-h gene (prkcsh) (Table 3 Cluster 1) | cluster's characteristics U61263 acetolactate synthase homolog (Table 3 Cluster 1) | cluster's characteristics U65579 mitochondrial nadh dehydrogenase-ubiquinone (Table 3 Cluster 1) | cluster's characteristics U65932 extracellular matrix protein 1 (ecm1) (Table 3 Cluster 1) | cluster's characteristics U69126 fuse binding protein 2 (fbp2) (Table 3 Cluster 1) | cluster's characteristics U72206 guanine nucleotide regulatory factor (lfp40) (Table 3 Cluster 1) | cluster's characteristics U91316 acyl-coa thioester hydrolase (Table 3 Cluster 1) | cluster's characteristics X04412 plasma gelsolin (Table 3 Cluster 1) | cluster's characteristics X76538 mpv17 (Table 3 Cluster 1) | cluster's characteristics X95325 dna binding protein a variant (Table 3 Cluster 1) | cluster's characteristics Y00264 amyloid a4 precursor (Table 3 Cluster 1) | cluster's characteristics Z26491 gene catechol o-methyltransferase (Table 3 Cluster 1)
˜d: cluster's characteristics M30818 interferon-induced cellular resistance mediator protein (Cluster 6) | cluster's characteristics X15949 interferon regulatory factor-2 (irf-2) (Cluster 6)
d˜: cluster's characteristics J00212 leukocyte interferon (ifn-alpha) (Cluster 5) | cluster's characteristics K01900 lymphocyte interferon alpha type 201 (Cluster 5) | cluster's characteristics L42243 ifnar2 gene (interferon receptor) (Cluster 5) | cluster's characteristics M79462 pml-1 (Cluster 5) | cluster's characteristics U52513 rig-g (Cluster 5) | cluster's characteristics X90846 mixed lineage kinase 2 (Cluster 5)
u˜: cluster's characteristics J03909 gamma-interferon-inducible protein (ip-30) (Cluster3) | cluster's characteristics M92642 alpha-1 type xvi collagen (col16a1) (Cluster3) | cluster's characteristics U41515 dss1 (Cluster3)
uu: cluster's characteristics M98343 amplaxin (ems1) (Cluster2) | cluster's characteristics D78132 rheb gene, ras-related gtp binding protein gene (Table 3 Cluster 2) | cluster's characteristics J04182 lysosomal membrane glycoprotein-1 (lamp1) (Table 3 Cluster 2) | cluster's characteristics J04444 cytochrome c-1 gene (Table 3 Cluster 2) | cluster's characteristics L07633 interferon-gamma (Table 3 Cluster 2) | cluster's characteristics L35249 vacuolar h + -atpase mr 56,000 subunit (ho57) (Table 3 Cluster 2) | cluster's characteristics M60784 ul snrnp-specific protein (Table 3 Cluster 2) | cluster's characteristics M65028 heterogeneous nuclear ribonucleoprotein a/b (Table 3 Cluster 2) | cluster's characteristics U70063 human acid ceramidase (Table 3 Cluster 2) | cluster's characteristics U78525 human eukaryotic translation initiation factor (eif3) (Table 3 Cluster 2) | cluster's characteristics X70848 protein phosphatase 1, catalytic subunit (Table 3 Cluster 2) | cluster's characteristics Z47055 farnesyl pyrophosphate synthetase like (Table 3 Cluster 2)
du: cluster's characteristics L40387 thyroid receptor interactor (trip14) (Cluster4) | cluster's characteristics M97935 transcription factor isgf-3 (Cluster4) | cluster's characteristics U01824 glutamate/aspartate transporter (Cluster4) | cluster's characteristics U53830 interferon regulatory factor 7a (Cluster4) | cluster's characteristics U72882 interferon-induced leucine zipper protein (ifp35) (Cluster4)
